From patent US7507739B2, “6-[(substituted)phenyl]triazolopyrimidines as anticancer agents” (Wyeth, priority 2003, dated 2009)

Columns and labels:
MAP-rich tubulin = experiment: Tubulin polymerization test with MAP-rich tubulin; type: biochemical, bovine; settings: 0.3 μM compound, 20 min, fold enhancement over control
Method in brief: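 Bovine brain MAP-rich tubulin (1.3 mg/mL) in PEM buffer pH 6.9 with 1 mM GTP, compounds at 0.3 μM final (0.3% DMSO), 24° for 60 min. Turbidity read at 340 nm each minute, baseline-subtracted; mean A340 at 20 min divided by solvent control gives fold enhancement.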

HeLa cells = experiment: Cell cycle analysis with HeLa cells; type: cell-based, human; settings: 18 hr
Protocol: HeLa cells are harvested by trypsinization, washed, counted and distributed to wells of 12-well plates at 125,000 cells per well in 2 mL medium. Cells are cultured overnight. […] Cells are continued in culture for 18 hr after compound addition, then cells in each well are harvested (taking care to recover both adherent and non-adherent cells) and processed using the CycleTEST PLUS kit (Becton Dickinson Immunocytometry Systems, San Jose, Calif.). Flow cytometry is done with a FACSort instrument (Becton Dickinson).
This procedure measures the percentages of cells in a population that are in the G1, S, and G2/M phases of the cell cycle. It utilizes staining of cell nuclei with propidium iodide and analysis by flow cytometry.

## C[C@H](Nc1c(-c2c(F)cc(OCCCN(C)C)cc2F)c(Cl)nc2ncnn12)C(F)(F)F.Cl [Example 1a, 5-chloro-6-{4-[3-(dimethylamino)propoxy]-2,6-difluorophenyl}-N-[(1S)-2,2,2-trifluoro-1-methylethyl][1,2,4]triazolo[1,5-a]pyrimidin-7-amine hydrogen chloride Salt]
MAP-rich tubulin
  A340 Compound/A340 Control: 6.1
HeLa cells; 20 nM
  Percent in Cell Cycle Phase >4N: 2%
  Percent in Cell Cycle Phase Apop: 13%
  Percent in Cell Cycle Phase G1: 54%
  Percent in Cell Cycle Phase G2/M: 14%
  Percent in Cell Cycle Phase S: 18%
HeLa cells; 30 nM
  Percent in Cell Cycle Phase >4N: 1%
  Percent in Cell Cycle Phase Apop: 38%
  Percent in Cell Cycle Phase G1: 35%
  Percent in Cell Cycle Phase G2/M: 14%
  Percent in Cell Cycle Phase S: 12%
HeLa cells; 40 nM
  Percent in Cell Cycle Phase >4N: 1%
  Percent in Cell Cycle Phase Apop: 71%
  Percent in Cell Cycle Phase G1: 7%
  Percent in Cell Cycle Phase G2/M: 13%
  Percent in Cell Cycle Phase S: 8%
HeLa cells; 40 nM, listed as example 1a
  Percent in Cell Cycle Phase Apop: about 70%
  Percent in Cell Cycle Phase G2/M: no increase
HeLa cells; 50 nM
  Percent in Cell Cycle Phase >4N: 2%
  Percent in Cell Cycle Phase Apop: 63%
  Percent in Cell Cycle Phase G1: 6%
  Percent in Cell Cycle Phase G2/M: 20%
  Percent in Cell Cycle Phase S: 9%
HeLa cells; 60 nM
  Percent in Cell Cycle Phase >4N: 3%
  Percent in Cell Cycle Phase Apop: 52%
  Percent in Cell Cycle Phase G1: 5%
  Percent in Cell Cycle Phase G2/M: 32%
  Percent in Cell Cycle Phase S: 10%
HeLa cells; 70 nM
  Percent in Cell Cycle Phase >4N: 4%
  Percent in Cell Cycle Phase Apop: 26%
  Percent in Cell Cycle Phase G1: 3%
  Percent in Cell Cycle Phase G2/M: 57%
  Percent in Cell Cycle Phase S: 9%
HeLa cells; 80 nM
  Percent in Cell Cycle Phase >4N: 5%
  Percent in Cell Cycle Phase Apop: 24%
  Percent in Cell Cycle Phase G1: 4%
  Percent in Cell Cycle Phase G2/M: 58%
  Percent in Cell Cycle Phase S: 9%
HeLa cells; 90 nM
  Percent in Cell Cycle Phase >4N: 6%
  Percent in Cell Cycle Phase Apop: 22%
  Percent in Cell Cycle Phase G1: 5%
  Percent in Cell Cycle Phase G2/M: 58%
  Percent in Cell Cycle Phase S: 10%
HeLa cells; 100 nM
  Percent in Cell Cycle Phase >4N: 5%
  Percent in Cell Cycle Phase Apop: 24%
  Percent in Cell Cycle Phase G1: 4%
  Percent in Cell Cycle Phase G2/M: 58%
  Percent in Cell Cycle Phase S: 10%
HeLa cells; 110 nM
  Percent in Cell Cycle Phase >4N: 5%
  Percent in Cell Cycle Phase Apop: 24%
  Percent in Cell Cycle Phase G1: 6%
  Percent in Cell Cycle Phase G2/M: 53%
  Percent in Cell Cycle Phase S: 13%
HeLa cells; 120 nM
  Percent in Cell Cycle Phase >4N: 5%
  Percent in Cell Cycle Phase Apop: 28%
  Percent in Cell Cycle Phase G1: 6%
  Percent in Cell Cycle Phase G2/M: 48%
  Percent in Cell Cycle Phase S: 14%

## CNCCCOc1cc(F)c(-c2c(Cl)nc3ncnn3c2NCC(F)(F)F)c(F)c1.Cl [Example 3a, 5-Chloro-6-{2,6-difluoro-4-[3-(methylamino)propoxy]phenyl}-N-(2,2,2-trifluoroethyl)[1,2,4]triazolo[1,5-a]pyrimidin-7-amine hydrogen chloride Salt]
HeLa cells; 20 nM
  Percent in Cell Cycle Phase >4N: 1%
  Percent in Cell Cycle Phase Apop: 29%
  Percent in Cell Cycle Phase G1: 42%
  Percent in Cell Cycle Phase G2/M: 16%
  Percent in Cell Cycle Phase S: 12%
HeLa cells; 30 nM
  Percent in Cell Cycle Phase >4N: 2%
  Percent in Cell Cycle Phase Apop: 55%
  Percent in Cell Cycle Phase G1: 11%
  Percent in Cell Cycle Phase G2/M: 21%
  Percent in Cell Cycle Phase S: 11%
HeLa cells; 40 nM
  Percent in Cell Cycle Phase >4N: 3%
  Percent in Cell Cycle Phase Apop: 50%
  Percent in Cell Cycle Phase G1: 6%
  Percent in Cell Cycle Phase G2/M: 31%
  Percent in Cell Cycle Phase S: 10%
HeLa cells; 50 nM
  Percent in Cell Cycle Phase >4N: 3%
  Percent in Cell Cycle Phase Apop: 32%
  Percent in Cell Cycle Phase G1: 5%
  Percent in Cell Cycle Phase G2/M: 52%
  Percent in Cell Cycle Phase S: 8%
HeLa cells; 60 nM
  Percent in Cell Cycle Phase >4N: 4%
  Percent in Cell Cycle Phase Apop: 25%
  Percent in Cell Cycle Phase G1: 4%
  Percent in Cell Cycle Phase G2/M: 58%
  Percent in Cell Cycle Phase S: 9%
HeLa cells; 70 nM
  Percent in Cell Cycle Phase >4N: 4%
  Percent in Cell Cycle Phase Apop: 21%
  Percent in Cell Cycle Phase G1: 5%
  Percent in Cell Cycle Phase G2/M: 61%
  Percent in Cell Cycle Phase S: 9%
HeLa cells; 80 nM
  Percent in Cell Cycle Phase >4N: 5%
  Percent in Cell Cycle Phase Apop: 24%
  Percent in Cell Cycle Phase G1: 5%
  Percent in Cell Cycle Phase G2/M: 57%
  Percent in Cell Cycle Phase S: 11%
HeLa cells; 90 nM
  Percent in Cell Cycle Phase >4N: 4%
  Percent in Cell Cycle Phase Apop: 23%
  Percent in Cell Cycle Phase G1: 5%
  Percent in Cell Cycle Phase G2/M: 60%
  Percent in Cell Cycle Phase S: 8%
HeLa cells; 100 nM
  Percent in Cell Cycle Phase >4N: 5%
  Percent in Cell Cycle Phase Apop: 25%
  Percent in Cell Cycle Phase G1: 5%
  Percent in Cell Cycle Phase G2/M: 55%
  Percent in Cell Cycle Phase S: 10%
HeLa cells; 110 nM
  Percent in Cell Cycle Phase >4N: 5%
  Percent in Cell Cycle Phase Apop: 26%
  Percent in Cell Cycle Phase G1: 6%
  Percent in Cell Cycle Phase G2/M: 54%
  Percent in Cell Cycle Phase S: 10%
HeLa cells; 120 nM
  Percent in Cell Cycle Phase >4N: 5%
  Percent in Cell Cycle Phase Apop: 30%
  Percent in Cell Cycle Phase G1: 6%
  Percent in Cell Cycle Phase G2/M: 48%
  Percent in Cell Cycle Phase S: 12%

## C[C@H](Nc1c(-c2c(F)cc(OCCCN(C)C)cc2F)c(Br)nc2ncnn12)C(F)(F)F [Example 25, 5-Bromo-6-{4-[3-(dimethylamino)propoxy]-2,6-difluorophenyl}-N-[(1S)-2,2,2-trifluoro-1-methylethyl][1,2,4]triazolo[1,5-a]pyrimidin-7-amine]
MAP-rich tubulin
  A340 Compound/A340 Control: 7.2

## CC(=O)O[C@H]1C(=O)[C@@]2(C)[C@H]([C@H](OC(=O)c3ccccc3)[C@]3(O)C[C@H](OC(=O)[C@H](O)[C@@H](NC(=O)c4ccccc4)c4ccccc4)C(C)=C1C3(C)C)[C@]1(OC(C)=O)CO[C@@H]1C[C@@H]2O [Paclitaxel, reference compound]
MAP-rich tubulin
  A340 Compound/A340 Control: 8.5
